Test results taken from ChEMBL document CHEMBL3611985, “Synthesis and structure-activity relationships of novel 9-oxime acylides with improved bactericidal activity” (2015).
Values after ≈ are worked out from the molar mass of the structure shown.

Experiments:
Assay type in all cases: functional
[1] = system: Streptococcus pneumoniae; test: Antimicrobial activity against erythromycin-susceptible Streptococcus pneumoniae ATCC 49619 incubated for 20 to 24 hrs by two-fold microbroth dilution method
[2] = system: Streptococcus pyogenes; test: Ratio of MBC to MIC against Streptococcus pyogenes 01-968 expressing inducible ermA
[3] = system: Streptococcus pyogenes; test: Antimicrobial activity against Streptococcus pyogenes 01-968 expressing inducible ermA incubated for 20 to 24 hrs by two-fold microbroth dilution method
[4] = system: Staphylococcus aureus; test: Bactericidal activity against methicillin-resistant Staphylococcus aureus PU32 expressing inducible ermA incubated for 20 hrs followed by sub-culturing for 24 hrs in absence of compound
[5] = system: Streptococcus pyogenes; test: Bactericidal activity against Streptococcus pyogenes 01-968 expressing inducible ermA incubated for 20 to 24 hrs followed by sub-culturing for 24 hrs in absence of compound
[6] = system: Streptococcus pyogenes; test: Antimicrobial activity against Streptococcus pyogenes 12-207 expressing mef incubated for 20 to 24 hrs by two-fold microbroth dilution method
[7] = system: Moraxella catarrhalis; test: Bactericidal activity against erythromycin-susceptible Moraxella catarrhalis 11B366 incubated for 20 hrs followed by sub-culturing for 24 hrs in absence of compound
[8] = system: Staphylococcus aureus; test: Antimicrobial activity against methicillin-resistant Staphylococcus aureus PU20 expressing constitutive ermC incubated for 20 hrs by two-fold microbroth dilution method; conditions: PU20, 20 h
[9] = system: Streptococcus pneumoniae; test: Ratio of MBC to MIC against penicillin-susceptible Streptococcus pneumoniae PU09
[10] = system: Staphylococcus aureus; test: Antimicrobial activity against methicillin-resistant Staphylococcus aureus PU32 expressing inducible ermA incubated for 20 hrs by two-fold microbroth dilution method; conditions: PU32, 20 h
[11] = system: Staphylococcus aureus; test: Ratio of MBC to MIC against methicillin-resistant Staphylococcus aureus PU20 expressing constitutive ermC
[12] = system: Haemophilus influenzae; test: Ratio of MBC to MIC against azithromycin-susceptible and ampicillin-resistant Haemophilus influenzae 11P037
[13] = system: Streptococcus pneumoniae; test: Antimicrobial activity against penicillin-susceptible Streptococcus pneumoniae PU09 incubated for 20 to 24 hrs by two-fold microbroth dilution method
[14] = system: Streptococcus pneumoniae; test: Bactericidal activity against erythromycin-susceptible Streptococcus pneumoniae ATCC 49619 incubated for 20 to 24 hrs followed by sub-culturing for 24 hrs in absence of compound
[15] = system: Staphylococcus aureus; test: Bactericidal activity against methicillin-resistant Staphylococcus aureus PU20 expressing constitutive ermC incubated for 20 hrs followed by sub-culturing for 24 hrs in absence of compound
[16] = system: Streptococcus pneumoniae; test: Ratio of MBC to MIC against erythromycin-susceptible Streptococcus pneumoniae ATCC 49619
[17] = system: Staphylococcus aureus; test: Ratio of MBC to MIC against methicillin-resistant Staphylococcus aureus PU32 expressing inducible ermA
[18] = system: Moraxella catarrhalis; test: Antimicrobial activity against erythromycin-susceptible Moraxella catarrhalis 11B366 incubated for 20 hrs by two-fold microbroth dilution method; conditions: 11B366, 20 h
[19] = system: Streptococcus pyogenes; test: Ratio of MBC to MIC against Streptococcus pyogenes 12-207 expressing mef
[20] = system: Moraxella catarrhalis; test: Ratio of MBC to MIC against erythromycin-susceptible Moraxella catarrhalis 11B366
[21] = system: Streptococcus pyogenes; test: Bactericidal activity against Streptococcus pyogenes 12-207 expressing mef incubated for 20 to 24 hrs followed by sub-culturing for 24 hrs in absence of compound
[22] = system: Streptococcus pneumoniae; test: Bactericidal activity against penicillin-susceptible Streptococcus pneumoniae PU09 incubated for 20 to 24 hrs followed by sub-culturing for 24 hrs in absence of compound
[23] = system: Haemophilus influenzae; test: Bactericidal activity against azithromycin-susceptible and ampicillin-resistant Haemophilus influenzae 11P037 incubated for 20 to 24 hrs followed by sub-culturing for 24 hrs in absence of compound
[24] = system: Haemophilus influenzae; test: Antimicrobial activity against azithromycin-susceptible and ampicillin-resistant Haemophilus influenzae 11P037 incubated for 20 to 24 hrs by two-fold microbroth dilution method

| Structure (SMILES) | MIC [1] [µg/mL] | Ratio [2] | MIC [3] [µg/mL] | MBC [4] [µg/mL] | MBC [5] [µg/mL] | MIC [6] [µg/mL] | MBC [7] [µg/mL] | MIC [8] [µg/mL] | Ratio [9] | MIC [10] [µg/mL] | Ratio [11] | Ratio [12] | MIC [13] [µg/mL] | MBC [14] [µg/mL] | MBC [15] [µg/mL] | Ratio [16] | Ratio [17] | MIC [18] [µg/mL] | Ratio [19] | Ratio [20] | other results |
| --- | --- | --- | --- | --- | --- | --- | --- | --- | --- | --- | --- | --- | --- | --- | --- | --- | --- | --- | --- | --- | --- |
| CC[C@H]1OC(=O)[C@H](C)C(=O)[C@H](C)[C@@H](O[C@@H]2O[C@H](C)C[C@H](N(C)C)[C@H]2O)[C@](C)(OC)C[C@@H](C)/C(=N\OC/C=C/c2cnc3ccccc3c2)[C@H](C)[C@H]2OC(=O)O[C@@]21C | ≤ 0.008 | >8 | 0.062 (≈ 0.0779 µM) | > 8 | > 0.5 | 0.016 (≈ 0.0201 µM) | 2 (≈ 2.51 µM) | 32 (≈ 40.2 µM) | 2 | 1 (≈ 1.26 µM) | 1 | >8 | 0.25 (≈ 0.314 µM) | 0.031 (≈ 0.0389 µM) | 32 (≈ 40.2 µM) | >=4 | >8 | 2 (≈ 2.51 µM) | >8 | 1 | MBC [21]: > 0.125 µg/mL; MBC [22]: 0.5 µg/mL (≈ 0.628 µM); MBC [23]: > 64 µg/mL; MIC [24]: 8 µg/mL (≈ 10.1 µM) |
| CC[C@H]1OC(=O)[C@H](C)[C@@H](OC(=O)Cc2ccccn2)[C@H](C)[C@@H](O[C@@H]2O[C@H](C)C[C@H](N(C)C)[C@H]2O)[C@](C)(OC)C[C@@H](C)/C(=N\OCC#Cc2cnc(N)nc2)[C@H](C)[C@H]2OC(=O)O[C@@]21C | 0.016 (≈ 0.0182 µM) | 2 | 0.25 (≈ 0.284 µM) | 8 (≈ 9.08 µM) | 0.5 (≈ 0.568 µM) | 0.25 (≈ 0.284 µM) | 4 (≈ 4.54 µM) | 128 (≈ 145 µM) | 2 | 1 (≈ 1.14 µM) | 2 | 8 | 0.5 (≈ 0.568 µM) | 0.031 (≈ 0.0352 µM) | 256 (≈ 291 µM) | 2 | 8 | 2 (≈ 2.27 µM) | >8 | 2 | MBC [21]: > 2 µg/mL; MBC [22]: 1 µg/mL (≈ 1.14 µM); MBC [23]: 64 µg/mL (≈ 72.6 µM); MIC [24]: 8 µg/mL (≈ 9.08 µM) |
| CC[C@H]1OC(=O)[C@H](C)[C@@H](OC(=O)Cc2ccccn2)[C@H](C)[C@@H](O[C@@H]2O[C@H](C)C[C@H](N(C)C)[C@H]2O)[C@](C)(OC)C[C@@H](C)/C(=N\OCC#Cc2cncc(N)c2)[C@H](C)[C@H]2OC(=O)O[C@@]21C | ≤ 0.008 | 4 | 0.125 (≈ 0.142 µM) | > 4 | 0.5 (≈ 0.568 µM) | 0.125 (≈ 0.142 µM) | 2 (≈ 2.27 µM) | 128 (≈ 145 µM) | 2 | 0.5 (≈ 0.568 µM) | 2 | >8 | 0.5 (≈ 0.568 µM) | 0.008 (≈ 0.00909 µM) | 256 (≈ 291 µM) | >=1 | >8 | 1 (≈ 1.14 µM) | >8 | 2 | MBC [21]: > 1 µg/mL; MBC [22]: 1 µg/mL (≈ 1.14 µM); MBC [23]: > 64 µg/mL; MIC [24]: 8 µg/mL (≈ 9.09 µM) |
| CC[C@H]1OC(=O)[C@H](C)[C@@H](OC(=O)Cc2ccccn2)[C@H](C)[C@@H](O[C@@H]2O[C@H](C)C[C@H](N(C)C)[C@H]2O)[C@](C)(OC)C[C@@H](C)/C(=N\OCC#Cc2cncc(C(N)=O)c2)[C@H](C)[C@H]2OC(=O)O[C@@]21C | 0.016 (≈ 0.0176 µM) | 2 | 0.031 (≈ 0.0341 µM) | > 4 | 0.062 (≈ 0.0683 µM) | 0.016 (≈ 0.0176 µM) | 2 (≈ 2.2 µM) | 256 (≈ 282 µM) | 2 | 0.5 (≈ 0.551 µM) | >2 | 8 | 0.5 (≈ 0.551 µM) | 0.016 (≈ 0.0176 µM) | > 256 | 1 | >8 | 1 (≈ 1.1 µM) | >8 | 2 | MBC [21]: > 0.125 µg/mL; MBC [22]: 1 µg/mL (≈ 1.1 µM); MBC [23]: 64 µg/mL (≈ 70.5 µM); MIC [24]: 8 µg/mL (≈ 8.81 µM) |
| CC[C@H]1OC(=O)[C@H](C)[C@@H](OC(=O)Cc2ccccn2)[C@H](C)[C@@H](O[C@@H]2O[C@H](C)C[C@H](N(C)C)[C@H]2O)[C@](C)(OC)C[C@@H](C)/C(=N\OCC#Cc2cccnc2)[C@H](C)[C@H]2OC(=O)O[C@@]21C | ≤ 0.008 | 1 | 0.25 (≈ 0.289 µM) | > 8 | 0.25 (≈ 0.289 µM) | 0.125 (≈ 0.145 µM) | 4 (≈ 4.62 µM) | 128 (≈ 148 µM) | 2 | 1 (≈ 1.16 µM) | 1 | >8 | 0.5 (≈ 0.578 µM) | 0.008 (≈ 0.00925 µM) | 128 (≈ 148 µM) | >=1 | >8 | 2 (≈ 2.31 µM) | >8 | 2 | MBC [21]: > 1 µg/mL; MBC [22]: 1 µg/mL (≈ 1.16 µM); MBC [23]: > 64 µg/mL; MIC [24]: 8 µg/mL (≈ 9.25 µM) |
| CC[C@H]1OC(=O)[C@H](C)[C@@H](OC(=O)Cc2ccccn2)[C@H](C)[C@@H](O[C@@H]2O[C@H](C)C[C@H](N(C)C)[C@H]2O)[C@](C)(OC)C[C@@H](C)/C(=N\OCC#Cc2ccc3nccnc3c2)[C@H](C)[C@H]2OC(=O)O[C@@]21C | ≤ 0.008 | 8 | 0.031 (≈ 0.0338 µM) | > 8 | 0.25 (≈ 0.273 µM) | 0.062 (≈ 0.0677 µM) | 2 (≈ 2.18 µM) | 128 (≈ 140 µM) | 2 | 1 (≈ 1.09 µM) | 1 | >8 | 0.5 (≈ 0.546 µM) | 0.008 (≈ 0.00873 µM) | 128 (≈ 140 µM) | >=1 | >8 | 2 (≈ 2.18 µM) | >8 | 1 | MBC [21]: > 0.5 µg/mL; MBC [22]: 1 µg/mL (≈ 1.09 µM); MBC [23]: > 128 µg/mL; MIC [24]: 16 µg/mL (≈ 17.5 µM) |
